Test results: patent US20040121962A1, “Prodrugs of excitatory amino acids” (priority 2001, published 2004)

Columns and labels:
[1] = biological target: T1, human mGluR3 (Homo sapiens, UniProt Q14832); test: Displacement of [3H]LY341495 binding to cell membranes, human mGluR3; conditions: read-out: Displacement of 3H-LY341495 binding (Ki, nM) (mean ± S.E., N = 3)
T1 construct: expressed in transfected cells
Procedure: (§1) To study the ability to affect receptor binding of compounds of the present invention in comparison to LY354740, displacement of a high affinity mGluR2 antagonist radioligand [^3H]LY341495 to cell membranes from human mGluR2, human mGluR3, and native rat brain tissues was determined.

[2] = biological target: mGlu2/3 receptors in rat forebrain membranes; conditions: read-out: Displacement of 3H-LY341495 binding (Ki, nM) (mean ± S.E., N = 3)
Procedure: as §1

[3] = system: fear-potentiated startle (mGlu2/3 receptor linked); test: Rat fear-potentiated startle anxiety model; type: in vivo; conditions: for MED (1 hour pre-treatement): fed rats, oral, 1 hour pre-treatment
From the text: This model was specifically chosen, as it is highly sensitive to mGlu2/3 agonists such as LY354740 and compounds of the present invention. (See, Helton […]., Monn […]., and Kallman M. J., Anxiolytic and side-effect profile of LY354740: A potent, high selective, orally active agonist for group II metabotropic glutamate receptors, J. Pharmacol. Exp. Ther. 284: 651-660 (1998)). To verify that the actions of a compound of formula I in this model were mGlu2/3 receptor mediated, as has been shown previously for LY354740 (See, […]., Ornstein P. L., Monn J. A., and Schoepp D. D., Actions of mGlu receptor agonists on fear-conditioning versus fear-expression in rats, Neuropharmacology, 38:[…] (#144) (1999)), the ability of LY341495 (an mGlu2/3 receptor antagonist) (See, Kingston A. E., Ornstein P. L., Wright R. A., Johnson […]., Burnett […]., Wu S., and Schoepp D. […] As a positive control in each experiment, diazepam (0.6 mg/kg i.p.) was used. All experiments were performed in fed rats. In the fear potentiated startle model, animals are exposed to a neutral stimulus such as light (conditioned stimulus) with an aversive stimulus such as a shock (unconditioned stimulus). Following conditioning, when the animals are presented with a loud acoustic stimulus, larger startle responses are elicited when the startle stimulus is preceded by light. Male Long Evans rats (180-400 g) or male NIH Swiss mice (18-35 g) were obtained from Harlan Sprague-Dawley, Cumberland, Ind., USA and acclimated at least 3 days before testing. Animals were housed at 23±2° C. (relative humidity 30% to 70%) and given Purina Certified Rodent Chow and water ad libitum. The photoperiod was 12 hours of light and 12 hours of dark, with dark onset at approximately 1800 hours. Test compounds were dissolved in a vehicle of purified water and neutralized with 5 N NaOH to a pH of 7-8 when applicable. Diazepam (Sigma Chemical Company, St. […] Control animals received the respective vehicle. […]

[4] = biological target: T2, human mGluR2 (Homo sapiens, UniProt Q14416); test: Displacement of [3H]LY341495 binding to cell membranes, human mGluR2; conditions: read-out: Displacement of 3H-LY341495 binding (Ki, nM) (mean ± S.E., N = 3)
T2 construct: expressed in transfected cells
T2 sequence (Q14416 19-872): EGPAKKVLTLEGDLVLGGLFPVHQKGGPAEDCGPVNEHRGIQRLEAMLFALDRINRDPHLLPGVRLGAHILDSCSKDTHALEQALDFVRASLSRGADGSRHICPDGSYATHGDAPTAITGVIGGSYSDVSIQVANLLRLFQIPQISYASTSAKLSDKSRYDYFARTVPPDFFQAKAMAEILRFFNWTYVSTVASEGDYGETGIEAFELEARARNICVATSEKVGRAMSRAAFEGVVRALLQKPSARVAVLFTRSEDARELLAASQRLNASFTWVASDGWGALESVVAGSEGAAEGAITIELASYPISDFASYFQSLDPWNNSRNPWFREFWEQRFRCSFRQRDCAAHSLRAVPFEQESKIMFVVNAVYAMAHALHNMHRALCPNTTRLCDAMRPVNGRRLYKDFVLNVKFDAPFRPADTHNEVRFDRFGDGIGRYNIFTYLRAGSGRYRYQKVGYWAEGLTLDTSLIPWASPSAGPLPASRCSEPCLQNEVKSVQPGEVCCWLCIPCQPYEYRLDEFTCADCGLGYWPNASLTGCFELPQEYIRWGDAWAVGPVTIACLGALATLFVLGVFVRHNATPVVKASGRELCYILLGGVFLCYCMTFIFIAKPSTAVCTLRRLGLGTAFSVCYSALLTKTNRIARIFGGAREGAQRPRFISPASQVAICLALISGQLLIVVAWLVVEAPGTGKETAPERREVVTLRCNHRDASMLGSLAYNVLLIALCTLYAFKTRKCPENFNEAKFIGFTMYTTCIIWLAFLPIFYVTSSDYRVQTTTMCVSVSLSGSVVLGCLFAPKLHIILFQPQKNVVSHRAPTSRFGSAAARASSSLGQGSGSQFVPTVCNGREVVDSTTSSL
Procedure: as §1

T1 sequence (Q14832 23-879): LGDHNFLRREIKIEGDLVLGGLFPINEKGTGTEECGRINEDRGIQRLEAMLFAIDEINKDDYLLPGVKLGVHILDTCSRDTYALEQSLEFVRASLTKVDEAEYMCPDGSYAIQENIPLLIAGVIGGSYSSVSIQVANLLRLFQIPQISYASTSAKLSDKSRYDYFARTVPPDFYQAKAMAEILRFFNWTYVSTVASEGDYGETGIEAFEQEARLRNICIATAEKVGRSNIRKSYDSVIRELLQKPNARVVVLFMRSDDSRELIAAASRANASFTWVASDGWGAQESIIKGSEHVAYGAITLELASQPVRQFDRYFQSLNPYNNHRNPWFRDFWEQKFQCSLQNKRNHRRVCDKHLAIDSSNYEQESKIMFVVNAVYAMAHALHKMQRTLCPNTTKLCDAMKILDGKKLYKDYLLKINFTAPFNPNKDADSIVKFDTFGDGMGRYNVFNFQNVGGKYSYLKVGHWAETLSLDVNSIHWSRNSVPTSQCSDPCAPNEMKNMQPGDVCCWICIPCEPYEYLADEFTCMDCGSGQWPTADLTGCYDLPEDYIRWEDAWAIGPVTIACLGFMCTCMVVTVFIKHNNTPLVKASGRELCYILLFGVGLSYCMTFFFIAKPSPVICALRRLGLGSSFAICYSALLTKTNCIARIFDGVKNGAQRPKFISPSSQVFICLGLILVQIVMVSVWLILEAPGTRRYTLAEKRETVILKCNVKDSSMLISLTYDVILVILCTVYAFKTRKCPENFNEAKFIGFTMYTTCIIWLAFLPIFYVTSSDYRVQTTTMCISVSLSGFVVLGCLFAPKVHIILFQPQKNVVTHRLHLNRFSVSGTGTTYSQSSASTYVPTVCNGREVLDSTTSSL

Q: With `NC1(C(=O)O)CCC2C(C(=O)O)C21` (single isomer, unassigned; (+)) [LY354740, (+)-2-aminobicyclo[3.1.0]hexane-2,6-dicarboxylic acid] as the molecule, how does the Ki [1] read?
A: The Ki was 126 ± 4.8 nM.

Q: What about the Ki [2] of the same molecule?
A: Its Ki is 80 ± 7.3 nM.

Q: And the “MED (1 hour pre-treatement)” value [3]?
A: The value was 3.0 mg/kg p.o.

Q: And the Ki [4]?
A: Its Ki is 84.7 ± 11.1 nM.

Q: Which “oral potency in the treatment of anxiety” value ([3]; preclinical studies) does the source give for `C[C@H](N)C(=O)N[C@@]1(C(=O)O)CC[C@H]2[C@H](C(=O)O)[C@H]21.Cl` [Example 3, (1S,2S,5R,6S)-2-[(2′S)-(2′-Amino)-propionyl]amino-bicyclo[3.1.0]hexane-2,6-dicarboxylic acid hydrochloride] here?
A: Its value is “greatly enhanced oral potency”.

Q: Which Ki [1] does the source give for `C[C@H](N)C(=O)N[C@@]1(C(=O)O)CC[C@H]2[C@H](C(=O)O)[C@H]21` [Formula I, (1S,2S,5R,6S)-2-[(2′S)-(2′-Amino)-propionyl]amino-bicyclo[3.1.0]hexane-2,6-dicarboxylic acid] here?
A: Its Ki is > 10000 nM.

Q: And the “MED (1 hour pre-treatement)” value [3]?
A: The value was 0.01 mg/kg p.o.

Q: What about the Ki [4] of the same molecule?
A: Its Ki is > 10000 nM.
